Assays:
Assay type in all cases: cell-based
hNaV1.2 = target: T1, hNaV1.2 (Homo sapiens, UniProt Q99250); test: Qube 384 automated patch-clamp, inactivated-state inhibition
T1 construct: expression vector containing the full-length cDNA coding for specific human and mouse sodium channel α-subunit; expressed in transfected cells
Text: (§1) All of the cell lines tested negative for mycoplasma.
(§2) Inorm(CPD)=(ICPD−Icontrol)/(ITTX−Icontrol).

mNaV1.2 = target: T2, mNaV1.2 (Mus musculus, UniProt B1AWN6); test: as above
T2 construct: expression vector containing the full-length cDNA coding for specific human and mouse sodium channel α-subunit; expressed in transfected cells
Text: as §1, §2

hNaV1.7 = target: T3, hNaV1.7 (Homo sapiens, UniProt Q15858); test: as above
T3 construct: expression vector containing the full-length cDNA coding for specific human and mouse sodium channel α-subunit; expressed in transfected cells
Text: as §1, §2

hNaV1.5 = target: T4, hNaV1.5 (Homo sapiens, UniProt Q14524); test: as above
T4 construct: expression vector containing the full-length cDNA coding for specific human and mouse sodium channel α-subunit; expressed in transfected cells
T4 sequence (Q14524 whole entry): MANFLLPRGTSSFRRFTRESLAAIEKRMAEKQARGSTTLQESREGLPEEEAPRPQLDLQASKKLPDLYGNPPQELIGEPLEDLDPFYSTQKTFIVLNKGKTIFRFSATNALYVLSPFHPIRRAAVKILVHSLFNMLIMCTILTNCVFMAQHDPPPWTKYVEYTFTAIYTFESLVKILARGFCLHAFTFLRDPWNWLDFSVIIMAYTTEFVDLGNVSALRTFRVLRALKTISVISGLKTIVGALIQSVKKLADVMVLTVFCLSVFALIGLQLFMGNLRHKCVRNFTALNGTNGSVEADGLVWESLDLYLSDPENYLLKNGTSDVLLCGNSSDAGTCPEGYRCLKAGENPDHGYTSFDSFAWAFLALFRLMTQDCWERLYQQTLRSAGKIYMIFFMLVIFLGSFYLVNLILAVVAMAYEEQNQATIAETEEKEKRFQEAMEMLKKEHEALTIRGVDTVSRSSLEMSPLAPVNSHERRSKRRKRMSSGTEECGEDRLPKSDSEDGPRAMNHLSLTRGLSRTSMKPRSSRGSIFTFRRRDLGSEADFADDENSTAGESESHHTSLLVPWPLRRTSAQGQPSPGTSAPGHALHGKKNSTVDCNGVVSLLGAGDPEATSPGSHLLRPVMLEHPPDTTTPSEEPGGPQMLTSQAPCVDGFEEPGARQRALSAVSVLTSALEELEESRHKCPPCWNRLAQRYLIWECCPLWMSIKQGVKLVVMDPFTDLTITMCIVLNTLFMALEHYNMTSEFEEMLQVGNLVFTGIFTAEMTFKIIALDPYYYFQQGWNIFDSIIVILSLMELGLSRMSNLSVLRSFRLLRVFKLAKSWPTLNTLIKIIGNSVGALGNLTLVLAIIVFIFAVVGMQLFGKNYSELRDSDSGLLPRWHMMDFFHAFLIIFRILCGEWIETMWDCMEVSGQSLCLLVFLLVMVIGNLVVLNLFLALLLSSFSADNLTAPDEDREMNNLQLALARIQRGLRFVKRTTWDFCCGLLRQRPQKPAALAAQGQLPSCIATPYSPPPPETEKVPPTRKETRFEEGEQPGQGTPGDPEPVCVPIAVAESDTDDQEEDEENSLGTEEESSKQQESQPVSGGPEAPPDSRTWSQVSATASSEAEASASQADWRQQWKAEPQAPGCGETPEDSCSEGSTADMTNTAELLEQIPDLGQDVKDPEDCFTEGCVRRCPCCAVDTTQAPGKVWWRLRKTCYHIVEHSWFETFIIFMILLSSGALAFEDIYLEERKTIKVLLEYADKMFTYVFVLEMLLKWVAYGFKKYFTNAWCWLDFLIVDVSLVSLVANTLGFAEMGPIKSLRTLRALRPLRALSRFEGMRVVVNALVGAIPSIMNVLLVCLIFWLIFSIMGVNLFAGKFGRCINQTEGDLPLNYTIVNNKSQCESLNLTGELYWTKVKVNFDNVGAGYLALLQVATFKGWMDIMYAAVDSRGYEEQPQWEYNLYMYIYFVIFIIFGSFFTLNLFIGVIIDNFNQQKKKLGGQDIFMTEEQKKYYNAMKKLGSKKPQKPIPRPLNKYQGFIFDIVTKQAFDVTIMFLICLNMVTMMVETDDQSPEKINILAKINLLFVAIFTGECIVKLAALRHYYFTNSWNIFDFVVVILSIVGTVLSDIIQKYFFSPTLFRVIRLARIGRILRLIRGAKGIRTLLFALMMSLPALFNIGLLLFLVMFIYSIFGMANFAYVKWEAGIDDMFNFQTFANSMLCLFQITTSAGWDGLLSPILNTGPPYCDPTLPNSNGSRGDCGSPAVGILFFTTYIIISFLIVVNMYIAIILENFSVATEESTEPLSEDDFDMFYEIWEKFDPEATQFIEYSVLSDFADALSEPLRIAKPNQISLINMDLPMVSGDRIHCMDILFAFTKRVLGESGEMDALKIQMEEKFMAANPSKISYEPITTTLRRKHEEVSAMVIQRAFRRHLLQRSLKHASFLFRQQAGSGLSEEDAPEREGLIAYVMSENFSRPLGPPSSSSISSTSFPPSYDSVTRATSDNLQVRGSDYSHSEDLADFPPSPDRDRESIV

[1] = target: T5, hNaV1.6(N1768D) resurgent currents (Homo sapiens, UniProt Q9UQD0, N1768D); test: Resurgent current inhibition
T5 construct: expression vector containing the full-length cDNA coding for specific human and mouse sodium channel α-subunit; expressed in transfected cells
T5 sequence (Q9UQD0 whole entry N1768D): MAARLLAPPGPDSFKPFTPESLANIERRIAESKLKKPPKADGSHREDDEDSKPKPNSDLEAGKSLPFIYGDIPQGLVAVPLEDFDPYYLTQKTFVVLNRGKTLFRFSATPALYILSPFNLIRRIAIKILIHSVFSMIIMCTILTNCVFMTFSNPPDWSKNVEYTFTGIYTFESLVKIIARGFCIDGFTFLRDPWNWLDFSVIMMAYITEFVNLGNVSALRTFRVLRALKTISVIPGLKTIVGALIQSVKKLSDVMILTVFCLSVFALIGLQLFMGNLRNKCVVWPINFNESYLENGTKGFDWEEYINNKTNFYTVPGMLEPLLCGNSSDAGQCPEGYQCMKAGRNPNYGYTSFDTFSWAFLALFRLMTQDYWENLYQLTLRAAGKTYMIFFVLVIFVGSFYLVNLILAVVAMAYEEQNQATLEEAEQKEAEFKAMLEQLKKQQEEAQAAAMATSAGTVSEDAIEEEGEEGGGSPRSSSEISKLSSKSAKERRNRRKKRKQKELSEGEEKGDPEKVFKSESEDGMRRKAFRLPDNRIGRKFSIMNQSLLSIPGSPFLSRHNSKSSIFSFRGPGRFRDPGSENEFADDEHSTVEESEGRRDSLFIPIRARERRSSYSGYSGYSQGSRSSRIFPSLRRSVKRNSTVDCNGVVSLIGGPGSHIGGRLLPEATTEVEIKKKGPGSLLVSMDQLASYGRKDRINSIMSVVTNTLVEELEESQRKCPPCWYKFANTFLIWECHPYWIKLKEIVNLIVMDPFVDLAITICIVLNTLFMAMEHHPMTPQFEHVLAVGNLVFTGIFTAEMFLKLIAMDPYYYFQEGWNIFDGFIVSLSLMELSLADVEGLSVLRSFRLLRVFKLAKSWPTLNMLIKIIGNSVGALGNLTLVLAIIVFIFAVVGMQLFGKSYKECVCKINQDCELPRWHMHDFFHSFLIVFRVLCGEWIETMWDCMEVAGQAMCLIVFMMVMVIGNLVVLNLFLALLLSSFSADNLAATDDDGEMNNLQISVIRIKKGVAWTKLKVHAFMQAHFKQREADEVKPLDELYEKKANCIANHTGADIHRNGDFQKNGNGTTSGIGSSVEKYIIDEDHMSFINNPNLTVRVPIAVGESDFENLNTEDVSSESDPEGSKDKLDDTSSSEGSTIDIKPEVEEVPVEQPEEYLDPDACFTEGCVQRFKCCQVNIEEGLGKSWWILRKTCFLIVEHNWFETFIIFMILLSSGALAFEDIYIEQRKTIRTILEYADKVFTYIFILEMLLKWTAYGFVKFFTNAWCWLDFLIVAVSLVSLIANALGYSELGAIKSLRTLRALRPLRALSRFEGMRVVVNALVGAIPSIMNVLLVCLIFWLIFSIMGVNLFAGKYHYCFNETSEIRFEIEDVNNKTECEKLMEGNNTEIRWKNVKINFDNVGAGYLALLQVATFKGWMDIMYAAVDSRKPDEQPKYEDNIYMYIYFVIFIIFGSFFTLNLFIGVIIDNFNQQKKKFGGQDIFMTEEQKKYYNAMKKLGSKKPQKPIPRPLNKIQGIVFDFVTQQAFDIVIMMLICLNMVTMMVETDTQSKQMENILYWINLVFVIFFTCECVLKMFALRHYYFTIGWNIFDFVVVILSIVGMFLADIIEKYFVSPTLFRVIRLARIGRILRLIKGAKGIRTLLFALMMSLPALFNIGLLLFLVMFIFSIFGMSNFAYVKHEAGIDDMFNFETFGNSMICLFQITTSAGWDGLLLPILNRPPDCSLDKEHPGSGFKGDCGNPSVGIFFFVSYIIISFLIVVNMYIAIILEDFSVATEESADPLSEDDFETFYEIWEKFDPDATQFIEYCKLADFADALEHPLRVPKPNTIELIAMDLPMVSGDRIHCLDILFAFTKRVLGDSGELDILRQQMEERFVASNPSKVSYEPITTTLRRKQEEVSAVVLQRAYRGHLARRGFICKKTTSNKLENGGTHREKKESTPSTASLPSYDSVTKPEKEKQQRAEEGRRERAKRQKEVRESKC
T5 sequence (Q92913 1-192 isoform Q92913-2 partner): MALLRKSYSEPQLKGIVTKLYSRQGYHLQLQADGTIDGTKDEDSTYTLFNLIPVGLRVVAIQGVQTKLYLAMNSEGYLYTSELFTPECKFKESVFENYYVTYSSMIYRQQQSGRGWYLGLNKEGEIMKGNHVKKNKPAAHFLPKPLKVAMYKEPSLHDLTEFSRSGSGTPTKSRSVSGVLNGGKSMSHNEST

hNaV1.6 = target: T6, hNaV1.6 (Homo sapiens, UniProt Q9UQD0); test: V0.5 assay (holding potential -62 mV); conditions: V0.5 assay -62 mV
T6 construct: expression vector containing the full-length cDNA coding for specific human and mouse sodium channel α-subunit; expressed in transfected cells
T6 sequence (Q9UQD0 whole entry): as the sequence (Q9UQD0 whole entry N1768D) above, with D1768N counted along it
T6 sequence (Q92913 1-192 isoform Q92913-2 partner): as the sequence (Q92913 1-192 isoform Q92913-2 partner) above

Cc1cc(S(=O)(=O)Nc2cscn2)c(F)cc1N(C)[C@H]1CCN(Cc2ccccc2)C1 [NBI-921352]
hNav1.2 current (352)/(Vehicle), mean (hNaV1.2; -5.90833 Log M): 0.21 | hNav1.2 current (352)/(Vehicle), mean (hNaV1.2; -5.95429 Log M): 0.14 | hNav1.2 current (352)/(Vehicle), mean (hNaV1.2; -6.3851 Log M): 0.11 | hNav1.2 current (352)/(Vehicle), mean (hNaV1.2; -6.86328 Log M): 0.04 | hNav1.2 current (352)/(Vehicle), mean (hNaV1.2; -6.91009 Log M): 0.03 | hNav1.2 current (352)/(Vehicle), mean (hNaV1.2; -7.33724 Log M): 0.01 | hNav1.2 current (352)/(Vehicle), mean (hNaV1.2; -7.38722 Log M): 0 | hNav1.2 current (352)/(Vehicle), mean (hNaV1.2; -7.85387 Log M): 0.01 | hNav1.2 current (352)/(Vehicle), mean (hNaV1.2; -8.30103 Log M): 0.01 | IC50 (hNaV1.2; Vh -45 mV, HEK-293): 6.9 µM | mNaV1.2 current (352)/(Vehicle) (mNaV1.2; -4.22185 Log M): 0.86 | mNaV1.2 current (352)/(Vehicle) (mNaV1.2; -4.69897 Log M): 0.58 | mNaV1.2 current (352)/(Vehicle) (mNaV1.2; -5.17607 Log M): 0.39 | mNaV1.2 current (352)/(Vehicle) (mNaV1.2; -5.65326 Log M): 0.19 | mNaV1.2 current (352)/(Vehicle) (mNaV1.2; -6.13018 Log M): 0.14 | mNaV1.2 current (352)/(Vehicle) (mNaV1.2; -6.6073 Log M): 0.04 | mNaV1.2 current (352)/(Vehicle) (mNaV1.2; -7.08619 Log M): 0.08 | mNaV1.2 current (352)/(Vehicle) (mNaV1.2; -7.56864 Log M): 0.05 | IC50 (mNaV1.2; Vh -45 mV): 11 µM | hNav1.7 current (352)/(Vehicle), mean (hNaV1.7; -4.52288 Log M): 0.74 | hNav1.7 current (352)/(Vehicle), mean (hNaV1.7; -5 Log M): 0.41 | hNav1.7 current (352)/(Vehicle), mean (hNaV1.7; -5.47716 Log M): 0.2 | hNav1.7 current (352)/(Vehicle), mean (hNaV1.7; -5.95429 Log M): 0.08 | hNav1.7 current (352)/(Vehicle), mean (hNaV1.7; -6.91009 Log M): 0.02 | hNav1.7 current (352)/(Vehicle), mean (hNaV1.7; -7.38722 Log M): 0.01 | hNav1.7 current (352)/(Vehicle), mean (hNaV1.7; -7.85387 Log M): 0.02 | hNav1.7 current (352)/(Vehicle), mean (hNaV1.7; -8.30103 Log M): -0.02 | IC50 (hNaV1.7; Vh -60 mV, HEK-293): 14 µM | inhibition at 30 µM (hNaV1.5; 30 µM, NaV1.5, read-out: inhibition at the highest concentration tested): < 50% | hNaV1.5 current (352)/(Vehicle), mean (hNaV1.5; -4.52288 Log M): 0.24 | hNaV1.5 current (352)/(Vehicle), mean (hNaV1.5; -5 Log M): 0.1 | hNaV1.5 current (352)/(Vehicle), mean (hNaV1.5; -5.47716 Log M): 0.02 | hNaV1.5 current (352)/(Vehicle), mean (hNaV1.5; -5.95429 Log M): 0.05 | hNaV1.5 current (352)/(Vehicle), mean (hNaV1.5; -6.91009 Log M): 0.04 | hNaV1.5 current (352)/(Vehicle), mean (hNaV1.5; -7.38722 Log M): -0.02 | hNaV1.5 current (352)/(Vehicle), mean (hNaV1.5; -7.85387 Log M): 0.03 | N1768D current in (352)/(Vehicle), Resurgent, mean ([1]; -5 Log M): 0.94 | N1768D current in (352)/(Vehicle), Resurgent, mean ([1]; -5.47716 Log M): 0.88 | N1768D current in (352)/(Vehicle), Resurgent, mean ([1]; -5.95429 Log M): 0.86 | N1768D current in (352)/(Vehicle), Resurgent, mean ([1]; -6.91009 Log M): 0.8 | N1768D current in (352)/(Vehicle), Resurgent, mean ([1]; -7.38722 Log M): 0.57 | N1768D current in (352)/(Vehicle), Resurgent, mean ([1]; -7.85387 Log M): 0.18 | IC50 ([1]; NaVβ4 peptide 200 μM intracellular, read-out: apparent IC50 resurgent currents from N1768D channels): 0.037 µM | Fraction of hNav1.6 current blocked, mean (hNaV1.6; 0.0046 µM): -0.01128 | Fraction of hNav1.6 current blocked, mean (hNaV1.6; 0.0137 µM): 0.1547 | Fraction of hNav1.6 current blocked, mean (hNaV1.6; 0.0412 µM): 0.4966 | Fraction of hNav1.6 current blocked, mean (hNaV1.6; 0.123 µM): 0.6688 | Fraction of hNav1.6 current blocked, mean (hNaV1.6; 0.37 µM): 0.8319 | Fraction of hNav1.6 current blocked, mean (hNaV1.6; 1.11 µM): 0.9499 | Fraction of hNav1.6 current blocked, mean (hNaV1.6; 3.33 µM): 0.9695 | Fraction of hNav1.6 current blocked, mean (hNaV1.6; 10 µM): 0.9977
